From US11766447B2, “3′3′-cyclic dinucleotide analogue comprising a cyclopentanyl modified nucleotide as sting modulator” (INSTITUTE OF ORGANIC CHEMISTRY AND BIOCHEMISTRY ASCR, V.V.I., priority 2019, dated 2023)
Read-outs that look alike come from different tables or passages of the source.

Legend:
[1] = target: T1, WT STING (Homo sapiens, UniProt Q86WV6, H232R); experiment: 293T WT STING standard reporter assay; type: cell-based; design: host or cells: 293T (ATCC CRL-3216), stably transfected, with 4xISRE firefly luciferase reporter; conditions: 293T wtSTING-FL cells, ISRE firefly luciferase; no digitonin; 7 hours with compounds; 8-point curve
From the text: Two complementary oligonucleotides of the sequence […] […] […] […] […] The oligonucleotides were mixed in equal molar amounts, hybridized, and cleaved by restriction endonucleases HindIII (cat. #. R0104S, NEB, Ipswich, USA) and BglII (cat. #R0144S, NEB, Ipswich, USA). Ultimately, they were ligated into plasmid pGL4.27 (cat. #E6651, Promega, Madison, USA) linearized with the same enzymes. As result the sequence with four ISRE sites was placed upstream of the minimum promoter of firefly luciferase reporter gene.
After 5 minutes incubation at room temperature (RT), 250 μL of the mixture was added dropwise to the cells in one well. Cells were incubated 36 hours at 37° C. with 5% CO2, and then detached with 0.05% Trypsin and 0.22 g/L EDTA (both cat. #L0941, Biowest, Riverside, USA).
Transfected cells were seeded onto poly-D-lysine coated six well plates at density 50,000 cells per 1 cm^2 in DMEM medium with high glucose containing 10% heat inactivated FBS, 30 μg/mL blasticidin (cat. #ant-b1-05, InvivoGen, San Diego, USA), 0.06 mg/ml Penicillin G and 0.1 mg/ml Streptomycin Sulfate (both cat. #. L0018, Biowest, Riverside, USA). The medium was replenished every 3-4 days until visible colonies of cells resistant to blasticidin were formed.
Blasticidin resistant cells stably expressing WT STING were further transfected with […] plasmid following the same procedure as described above. […] Homogeneous culture of stably double transfected cells was prepared by limiting dilution of cells in 96 well plates and wells with cells were selected that originated from a single cell.
The medium was removed next day and three-fold serial dilutions of compounds in 100 μl medium were added to the cells. The plates with cells were incubated for 7 hours at 37° C. with 5% CO2. After 50 μl of the medium was removed, 30 μl of ONE-Glo™ Luciferase Assay System reagent (cat. #E6120, Promega, Madison, USA) was added to each well and luminescence was read on Synergy H1 (Biotek, Winooski, USA).
Target sequence in this assay (Q86WV6 whole entry H232R): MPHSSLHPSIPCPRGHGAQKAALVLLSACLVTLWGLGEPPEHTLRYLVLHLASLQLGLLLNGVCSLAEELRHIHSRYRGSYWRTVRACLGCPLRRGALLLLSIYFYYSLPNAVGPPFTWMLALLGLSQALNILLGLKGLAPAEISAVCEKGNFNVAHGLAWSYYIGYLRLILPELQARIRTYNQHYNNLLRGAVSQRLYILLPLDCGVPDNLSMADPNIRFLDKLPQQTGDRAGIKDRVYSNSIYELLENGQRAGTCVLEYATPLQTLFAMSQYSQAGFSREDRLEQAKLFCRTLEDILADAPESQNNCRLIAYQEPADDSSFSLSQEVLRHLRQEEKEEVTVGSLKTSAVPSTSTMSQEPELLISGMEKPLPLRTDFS

[2] = target: T1, WT STING; experiment: Digitonin assay using 293T wtSTING-FL reporter cells; type: cell-based; design: host or cells: 293T (ATCC CRL-3216), stably transfected, with 4xISRE firefly luciferase reporter; conditions: 293T wtSTING-FL cells, ISRE firefly luciferase; compounds in Digitonin buffer 30 minutes, then 5 hours; 8-point curve
Target sequence in this assay (Q86WV6 whole entry H232R): as above

[3] = target: T1, WT STING; experiment: Differential scanning fluorimetry (DSF) with WT STING; type: binding; design: 8xHis (N, cleaved yes); SUMO (N, cleaved yes); made in house; host or cells: E. coli Rosetta-gami B (DE3); conditions: thermal shift vs apoprotein; 150 μM CDN; truncated human WT STING 0.1 mg/ml
In short: (§1)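 […] STING proteins, alone or with CDNs, in triplicate, thermally denatured on a real-time PCR cycler. Denaturing temperatures taken from first-derivative curves; shift = mean Tm of STING–CDN complex minus mean Tm of apoprotein.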
Target sequence in this assay (Q86WV6 140-343 H232R): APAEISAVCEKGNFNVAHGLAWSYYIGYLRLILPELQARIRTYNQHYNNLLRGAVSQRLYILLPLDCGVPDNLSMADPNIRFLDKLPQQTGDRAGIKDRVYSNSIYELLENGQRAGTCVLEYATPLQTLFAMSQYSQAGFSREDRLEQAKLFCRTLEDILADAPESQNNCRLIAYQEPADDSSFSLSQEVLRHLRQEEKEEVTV

[4] = test system: peripheral blood mononuclear cells (PBMC); experiment: Peripheral blood mononuclear cell (PBMC) assay; type: cell-based; conditions: 1 h with compounds, washed, 15 hour incubation, average of one to four donors
Description: Selected compounds were tested in an in vitro peripheral blood mononuclear cell (PBMC) assay. […] Serially diluted tested compounds were added to wells in 50 μl of cultivation medium and cell were incubated with compounds for 1 h at 37° C. with 5% CO2. Plates with cells were then spun 500 g for 5 minutes and medium was removed. Cells were washed twice with the cell culture medium by the use of centrifugation and gently resuspended in 100 μl medium without compounds. After 15 hour incubation at 37° C. with 5% CO2, the cell culture medium was collected and the levels of interferon-alpha (INF-α), interferon-gamma (INF-γ) and tumor necrosis factor-alpha (TNF-α) were determined with ProcartaPlex Assays (ThermoFisher, Waltham, USA) and MAGPIX System (Merck KGaA, Darmstadt, Germany). […] Values reported are an average of runs from one to four donors.

[5] = target: T2, AQ STING (G230A-R293Q) (Homo sapiens, UniProt Q86WV6, G230A/H232R/R293Q); experiment: Differential scanning fluorimetry (DSF) with AQ STING; type: binding; conditions: thermal shift vs apoprotein; 150 μM CDN; truncated human AQ STING 0.1 mg/ml
T2 construct: 8xHis (N, cleaved yes); SUMO (N, cleaved yes); made in house; host or cells: E. coli Rosetta-gami B (DE3)
T2 sequence (Q86WV6 140-343 G230A/H232R/R293Q): as the sequence (Q86WV6 140-343 H232R) above, with G91A, R154Q counted along it
In short: as §1

[6] = PBMC, interferon-alpha level, read-out: PBMC EC50 (μM) IFN-α
[7] = PBMC, interferon-gamma level, read-out: PBMC EC50 (μM) IFN-γ
[8] = PBMC, tumor necrosis factor-alpha level, read-out: PBMC EC50 (μM) TNF-α

Row | SMILES | EC50 [1] [µM] | EC50 [2] [µM] | DSF ΔTm (° C.) WT STING [3] [°C] | EC50 [4, 6] [µM] | EC50 [4, 7] [µM] | EC50 [4, 8] [µM] | DSF ΔTm (° C.) AQ STING [5] [°C] | ΔTm at 150 µM [3] [°C] | ΔTm at 150 µM [5] [°C] | EC50 ([4]; interferon-alpha level, read-out: PBMC EC50 (μM) IFN-α) [µM] | EC50 ([4]; interferon-gamma level, read-out: PBMC EC50 (μM) IFN-γ) [µM] | EC50 ([4]; tumor necrosis factor-alpha level, read-out: PBMC EC50 (μM) TNF-α) [µM]
1 | Nc1ncnc2c1ncn2[C@@H]1C[C@@H]2COP(=O)(S)OC3C[C@H](n4cnc5c(N)ncnc54)O[C@@H]3COP(=O)(S)OC2C1F (single isomer, unassigned) [Compound 142b] | 0.5 | 0.02 |  |  |  |  |  |  |  |  |  | 
2 | Nc1nc2c(ncn2[C@@H]2C[C@@H]3COP(=O)(S)O[C@H]4[C@@H](F)[C@H](n5cnc6c(N)ncnc65)O[C@@H]4COP(=O)(S)O[C@H]3C2)c(=O)[nH]1 (single isomer, unassigned) [Compound 129d] | 0.3 | 0.007 | 13.7 | 27 | 23 | 25 | 20.8 |  |  |  |  | 
3 | Nc1ncnc2c1ncn2[C@@H]1C[C@@H]2COP(=O)(O)OC3C(F)[C@H](n4cnc5c(N)ncnc54)C[C@@H]3COP(=O)(O)OC2C1F (stereo partly drawn) [Compound 121, (2R,3S,3aR,7aR,9R,10S,10aR,14aR)-2,9-bis(6-amino-9H-purin-9-yl)-3,10-difluoro-5,12-dihydroxydodecahydrodicyclopenta[d,j][1,3,7,9]tetraoxa[2,8]-diphosphacyclododecine 5,12-dioxide] | 2.6 | 0.05 |  | 254 | 200 | 254 |  | 7.6 | 13.9 |  |  | 
4 | Nc1ncnc2c1ncn2[C@@H]1C[C@@H]2COP(=O)(S)OC3C(F)[C@H](n4cnc5c(N)ncnc54)O[C@@H]3COP(=O)(S)OC2C1F (single isomer, unassigned) [Compound 102a] | 1.8 | 0.11 |  |  |  |  |  | 6.7 | 11.2 |  |  | 
5 | Nc1ncnc2c1ncn2[C@@H]1C[C@@H]2COP(=O)(O)O[C@H]3[C@@H](F)[C@H](n4cnc5c(N)ncnc54)O[C@@H]3COP(=O)(S)O[C@H]2[C@H]1F (single isomer, unassigned) [Compound 130b] | 1.2 | 0.01 | 13.6 |  |  |  | 20.3 |  |  |  |  | 
6 | Nc1ncnc2c1ncn2[C@@H]1C[C@@H]2COP(=O)(O)O[C@H]3[C@@H](F)[C@H](n4cnc5c(N)ncnc54)O[C@@H]3COP(=O)(S)O[C@H]2[C@H]1F (single isomer, unassigned) [Compound 130a] | 1 | 0.01 |  |  |  |  |  | 14.7 | 20.7 |  |  | 
7 | Nc1ncnc2c1ncn2[C@@H]1C[C@@H]2COP(=O)(S)OC3C(F)[C@H](n4cnc5c(N)ncnc54)O[C@@H]3COP(=O)(S)OC2C1F (single isomer, unassigned) [Compound 102d] | 0.4 | 0.01 |  |  |  |  |  |  |  |  |  | 
8 | Nc1ncnc2c1ncn2[C@@H]1C[C@@H]2COP(=O)(S)OC3C(F)[C@H](n4cnc5c(N)ncnc54)O[C@@H]3COP(=O)(S)OC2C1F (single isomer, unassigned) [Compound 102b] | 0.7 | 0.005 | 11.9 |  |  |  | 16.9 |  |  |  |  | 
9 | Nc1nc2c(ncn2[C@@H]2O[C@@H]3COP(=O)(S)OC4C(F)[C@H](n5cnc6c(N)ncnc65)C[C@@H]4COP(=O)(S)OC3C2F)c(=O)[nH]1 (stereo partly drawn) [Compound 132b, (1R,6R,8R,9R,10R,15R,17R,18S)-8-(2-amino-6-oxo-6,9-dihydro-1H-purin-9-yl)-17-(6-amino-9H-purin-9-yl)-9,18-difluoro-3,12-disulfanyl-2,4,7,11,13-pentaoxa-3λ^5,12λ^5-diphosphatricyclo[13.3.0.0^6,10]octadecane-3,12-dione] | 0.2 | 0.01 |  |  |  |  |  | 18.6 | 26.1 |  |  | 
10 | Nc1ncnc2c1ncn2[C@@H]1C[C@@H]2COP(=O)(O)OC3C[C@H](n4cnc5c(N)ncnc54)O[C@@H]3COP(=O)(O)OC2C1F (stereo partly drawn) [Compound 124, (2R,3aS,7aR,9R,10S,10aR,14aR)-2,9-bis(6-amino-9H-purin-9-yl)-10-fluoro-5,12-dihydroxydecahydro-2H-cyclopenta[d]furo[3,2-j][1,3,7,9]tetraoxa[2,8]diphosphacyclododecine 5,12-dioxide] | 4.9 | 0.05 |  | 290 | 43 | 223 |  | 6.2 | 12.8 |  |  | 
11 | Nc1nc2c(ncn2[C@@H]2O[C@@H]3COP(=O)(O)O[C@@H]4[C@H](O)[C@@H](COP(=O)(O)O[C@@H]2[C@@H]3O)O[C@H]4n2cnc3c(N)ncnc32)c(=O)[nH]1 [2′2′-cGAMP, reference compound] | 10.2 | 0.03 | 11.5 |  |  |  | 19.4 |  |  |  |  | 
12 | Nc1ncnc2c1ncn2[C@@H]1C[C@@H]2COP(=O)(S)O[C@@H]3[C@@H](COP(=O)(S)O[C@H]2[C@H]1F)C[C@@H](n1cnc2c(N)ncnc21)[C@@H]3F (single isomer, unassigned) [Compound 128b] | 0.4 | 0.01 | 12.2 | 27 | 6.5 | 19 | 17.5 |  |  |  |  | 
13 | CC(C)(C)C(=O)OCOP1(=O)OC[C@H]2O[C@@H](n3cnc4c(N)ncnc43)CC2OP(=O)(OCOC(=O)C(C)(C)C)OC[C@H]2C[C@@H](n3cnc4c(N)ncnc43)C(F)C2O1 (stereo partly drawn) [Compound 139b, (((2R,3aS,7aR,9R,10S,10aR,14aR)-2,9-bis(6-amino-9H-purin-9-yl)-10-fluoro-5,12-dioxidodecahydro-2H-cyclopenta[d]furo[3,2-j][1,3,7,9]tetraoxa[2,8]di-phosphacyclododecine-5,12-diyl)bis(oxy))bis(methylene) bis(2,2-dimethylpropanoate)] | 0.001 |  |  |  |  |  |  |  |  | 0.3 | 0.1 | 0.1
14 | CCC(C)(C)C(=O)OCOP1(=O)OC[C@H]2O[C@@H](n3cnc4c(N)ncnc43)C(F)C2OP(=O)(OCOC(=O)C(C)(C)CC)OC[C@H]2C[C@@H](n3cnc4c(N)ncnc43)C(F)C2O1 (stereo partly drawn) [Compound 144b, {[(1R,6R,8R,9R,10R,15R,17R,18S)-8,17-bis(6-amino-9H-purin-9-yl)-3-{[(2,2-dimethylbutanoy)oxy]methoxy}-9,18-difluoro-3,12-dioxo-2,4,7,11,13-pentaoxa-3λ^5,12λ^5-diphosphatricyclo[13.3.0.0^6,10]octadecan-12-yl]oxy}methyl 2,2-dimethylbutanoate] | 0.001 |  |  | 0.04 | 0.05 | 0.02 |  |  |  |  |  | 
